A value given as a limit tells only on which side of the number the result lay.

Data set [1] concerns Oncorhynchus mykiss.
Data set [2] deals with Bibionidae. The following applies: chronic/long-term; duration: 28 days.
The test system of data set [3] is Tagia sp.
In data set [4] the test system is Canidae. Conditions: chronic, oral, Dog Other, clinical signs.
In data set [5] the test system is Anas platyrhynchos.
Data set [6] relates to Daphnia magna. Conditions: chronic/long-term; duration: 21 days; reproduction.
The subject of data set [7] is Rattus norvegicus.
In data set [8] the test system is Poecilus cupreus. Description: LR50; higher = less toxic. The following applies: not reported; mortality.

Take `CC[C@H](C)[C@H]1O[C@]2(C=C[C@@H]1C)C[C@@H]1C[C@@H](C/C=C(\C)[C@@H](O[C@H]3C[C@H](OC)[C@@H](O[C@H]4C[C@H](OC)[C@@H](O)[C@H](C)O4)[C@H](C)O3)[C@@H](C)/C=C/C=C3\CO[C@@H]4[C@H](O)C(C)=C[C@@H](C(=O)O1)[C@]34O)O2.CO[C@H]1C[C@H](O[C@H]2[C@H](C)O[C@@H](O[C@@H]3/C(C)=C/C[C@@H]4C[C@@H](C[C@]5(C=C[C@H](C)[C@@H](C(C)C)O5)O4)OC(=O)[C@@H]4C=C(C)[C@@H](O)[C@H]5OC/C(=C\C=C\[C@@H]3C)[C@]54O)C[C@@H]2OC)O[C@@H](C)[C@@H]1O` [Abamectin]: the LD50 was 0.0036 mg/L in data set [1] (acute, duration: 96 hours, mortality); at most 77 mg/kg-day in data set [5] (acute, oral, unspecified, mortality); 8.7 mg/kg in data set [7] (acute, mortality). Further, the NOEC in data set [1] (chronic/long-term, duration: 28 days) is 0.00052 mg/L; in data set [2], 8.1e-05 mg/L; in data set [3] (not reported) it was at least 0.72 mg/kg; in data set [5] (chronic/long-term, M) it was 1.33 mg/kg-day; in data set [6], 1e-05 mg/L; in data set [7] (chronic, oral), 0.12 mg/kg-day. In addition, the LC50 was 33 mg/kg in data set [3] (acute, duration: 14 days, mortality) and 48.6 mg/kg-day in data set [5] (short-term, oral, feed, mortality). The NOAEL (commonly the highest dose or exposure tested at which no adverse effect was seen) came to 0.25 mg/kg-day in data set [4] (duration: 18 weeks); 0.25 mg/kg-day in data set [4] (duration: 53 weeks); 0.5 mg/kg-day in data set [7] (acute, clinical signs). This molecule showed an LR50 in data set [8] of over 58 g/ha.

The values are drawn from EPA's ToxValDB 9.5 (doi:10.2903/j.efsa.2016.4491).
